Literature values as cited in PMC3433420 (PLoS ONE, 2012).
Like-named read-outs stand apart in the source and are kept apart here.

Biological target: SH2 and PTB domains
Details: cited from earlier work
Source text: Supplement pone.0044471.s022.xlsx, sheet "Most recent PM interactions" | column: Kd || Supplement pone.0044471.s022.xlsx, sheet "All original PM interactions" | column: Kd

[1] = protein ABL2, ref Jones et al. 2006 / Kaushansky et al. Mol Biosys 2008 / Kaushansky et al. Chem and Biol 2008
[2] = protein BLK, ref Jones et al. 2006 / Kaushansky et al. Mol Biosys 2008 / Kaushansky et al. Chem and Biol 2008
[3] = protein GRB10, ref Jones et al. 2006 / Kaushansky et al. Mol Biosys 2008 / Kaushansky et al. Chem and Biol 2008
[4] = protein ITK, ref Jones et al. 2006 / Kaushansky et al. Mol Biosys 2008 / Kaushansky et al. Chem and Biol 2008
[5] = protein PIK3R1-NC, ref Jones et al. 2006 / Kaushansky et al. Mol Biosys 2008 / Kaushansky et al. Chem and Biol 2008
[6] = protein PIK3R3-NC, ref Jones et al. 2006 / Kaushansky et al. Mol Biosys 2008 / Kaushansky et al. Chem and Biol 2008
[7] = protein RASA1-N, ref Jones et al. 2006 / Kaushansky et al. Mol Biosys 2008 / Kaushansky et al. Chem and Biol 2008
[8] = protein RASA1-NC, ref Jones et al. 2006 / Kaushansky et al. Mol Biosys 2008 / Kaushansky et al. Chem and Biol 2008
[9] = protein SH2B3, ref Jones et al. 2006 / Kaushansky et al. Mol Biosys 2008 / Kaushansky et al. Chem and Biol 2008
[10] = protein SH2B, ref Jones et al. 2006 / Kaushansky et al. Mol Biosys 2008 / Kaushansky et al. Chem and Biol 2008
[11] = protein SH2D3C, ref Jones et al. 2006 / Kaushansky et al. Mol Biosys 2008 / Kaushansky et al. Chem and Biol 2008
[12] = protein SHC1-PTB, ref Jones et al. 2006 / Kaushansky et al. Mol Biosys 2008 / Kaushansky et al. Chem and Biol 2008
[13] = protein SHC2-PTB, ref Jones et al. 2006 / Kaushansky et al. Mol Biosys 2008 / Kaushansky et al. Chem and Biol 2008
[14] = protein SLA, ref Jones et al. 2006 / Kaushansky et al. Mol Biosys 2008 / Kaushansky et al. Chem and Biol 2008
[15] = protein SRC, ref Jones et al. 2006 / Kaushansky et al. Mol Biosys 2008 / Kaushansky et al. Chem and Biol 2008
[16] = protein SYK-NC, ref Jones et al. 2006 / Kaushansky et al. Mol Biosys 2008 / Kaushansky et al. Chem and Biol 2008
[17] = protein TNS4, ref Jones et al. 2006 / Kaushansky et al. Mol Biosys 2008 / Kaushansky et al. Chem and Biol 2008
[18] = protein YES1, ref Jones et al. 2006 / Kaushansky et al. Mol Biosys 2008 / Kaushansky et al. Chem and Biol 2008
[19] = protein ABL2, ref Jones et al. 2006 / Kaushansky et al. Chem and Biol 2008
[20] = protein SHC1-PTB, ref Jones et al. 2006 / Kaushansky et al. Chem and Biol 2008

DNPDpYQQDFFPKd [ErbB1 pY1172, N-terminally rhodamine-labeled 13-mer phosphopeptide]
Kd [1]: 490 nM
Kd (protein BCAR3, ref Jones et al. 2006 / Kaushansky et al. Mol Biosys 2008 / Kaushansky et al. Chem and Biol 2008): 300 nM
Kd [2]: 750 nM
Kd (protein CRK, ref Jones et al. 2006 / Kaushansky et al. Mol Biosys 2008 / Kaushansky et al. Chem and Biol 2008): 410 nM
Kd (protein FGR, ref Jones et al. 2006 / Kaushansky et al. Mol Biosys 2008 / Kaushansky et al. Chem and Biol 2008): 550 nM
Kd [3]: 1290 nM
Kd (protein GRB14, ref Jones et al. 2006 / Kaushansky et al. Mol Biosys 2008 / Kaushansky et al. Chem and Biol 2008): 1250 nM
Kd [4]: 1410 nM
Kd (protein LYN, ref Jones et al. 2006 / Kaushansky et al. Mol Biosys 2008 / Kaushansky et al. Chem and Biol 2008): 1590 nM
Kd (protein NCK2, ref Jones et al. 2006 / Kaushansky et al. Mol Biosys 2008 / Kaushansky et al. Chem and Biol 2008): 380 nM
Kd (protein PIK3R1-N, ref Jones et al. 2006 / Kaushansky et al. Mol Biosys 2008 / Kaushansky et al. Chem and Biol 2008): 400 nM
Kd [5]: 550 nM
Kd (protein PIK3R2-N, ref Jones et al. 2006 / Kaushansky et al. Mol Biosys 2008 / Kaushansky et al. Chem and Biol 2008): 390 nM
Kd (protein PIK3R2-NC, ref Jones et al. 2006 / Kaushansky et al. Mol Biosys 2008 / Kaushansky et al. Chem and Biol 2008): 320 nM
Kd [6]: 850 nM
Kd (protein PLCG2-N, ref Jones et al. 2006 / Kaushansky et al. Mol Biosys 2008 / Kaushansky et al. Chem and Biol 2008): 840 nM
Kd (protein PLCG2-NC, ref Jones et al. 2006 / Kaushansky et al. Mol Biosys 2008 / Kaushansky et al. Chem and Biol 2008): 670 nM
Kd [7]: 1140 nM
Kd [8]: 1170 nM
Kd [9]: 1600 nM
Kd [10]: 1820 nM
Kd [11]: 1910 nM
Kd (protein SHB, ref Jones et al. 2006 / Kaushansky et al. Mol Biosys 2008 / Kaushansky et al. Chem and Biol 2008): 1790 nM
Kd [12]: 40 nM
Kd [13]: 1310 nM
Kd [14]: 2000 nM
Kd [15]: 470 nM
Kd (protein SUPT6H, ref Jones et al. 2006 / Kaushansky et al. Mol Biosys 2008 / Kaushansky et al. Chem and Biol 2008): 1030 nM
Kd (protein SYK-C, ref Jones et al. 2006 / Kaushansky et al. Mol Biosys 2008 / Kaushansky et al. Chem and Biol 2008): 870 nM
Kd [16]: 1280 nM
Kd (protein TNS3, ref Jones et al. 2006 / Kaushansky et al. Mol Biosys 2008 / Kaushansky et al. Chem and Biol 2008): 740 nM
Kd [17]: 330 nM
Kd (protein VAV2, ref Jones et al. 2006 / Kaushansky et al. Mol Biosys 2008 / Kaushansky et al. Chem and Biol 2008): 220 nM
Kd (protein VAV3, ref Jones et al. 2006 / Kaushansky et al. Mol Biosys 2008 / Kaushansky et al. Chem and Biol 2008): 2000 nM
Kd [18]: 100 nM

DNPDpYWHSRLFPd [ErbB3 pY1328, N-terminally rhodamine-labeled 13-mer phosphopeptide]
Kd [19]: 600 nM
Kd (protein HSH2D, ref Jones et al. 2006 / Kaushansky et al. Chem and Biol 2008): 1700 nM
Kd (protein MATK, ref Jones et al. 2006 / Kaushansky et al. Chem and Biol 2008): 1870 nM
Kd (protein NCK2, ref Jones et al. 2006 / Kaushansky et al. Chem and Biol 2008): 1900 nM
Kd (protein RASA1-NC, ref Jones et al. 2006 / Kaushansky et al. Chem and Biol 2008): 1920 nM
Kd [20]: 220 nM
Kd (protein SYK-NC, ref Jones et al. 2006 / Kaushansky et al. Chem and Biol 2008): 1980 nM
Kd (protein TENC1, ref Jones et al. 2006 / Kaushansky et al. Chem and Biol 2008): 1250 nM
Kd (protein TNS4, ref Jones et al. 2006 / Kaushansky et al. Chem and Biol 2008): 850 nM

DNPDpYWNHSLPPd [ErbB4 pY1242, N-terminally rhodamine-labeled 13-mer phosphopeptide]
Kd (protein ABL2, ref Kaushansky et al. Chem and Biol 2008): 34 nM
Kd (protein SHC1-PTB, ref Kaushansky et al. Chem and Biol 2008): 510 nM

DNPEpYHNASNGPd [ErbB4 pY1188, N-terminally rhodamine-labeled 13-mer phosphopeptide]
Kd (protein ABL1, all original PM interactions, ref Jones et al. 2006 / Kaushansky et al. Chem and Biol 2008): 1820 nM
Kd (protein ABL2, all original PM interactions, ref Jones et al. 2006 / Kaushansky et al. Chem and Biol 2008): 760 nM
Kd [19]: 35 nM
Kd (protein NCK2, all original PM interactions, ref Jones et al. 2006 / Kaushansky et al. Chem and Biol 2008): 2000 nM
Kd (protein PIK3R3-NC, all original PM interactions, ref Jones et al. 2006 / Kaushansky et al. Chem and Biol 2008): 2000 nM
Kd (protein SHC1-PTB, all original PM interactions, ref Jones et al. 2006 / Kaushansky et al. Chem and Biol 2008): 280 nM
Kd [20]: 720 nM

DSNFpYRALMDEEd [ErbB1 pY998, N-terminally rhodamine-labeled 13-mer phosphopeptide]
Kd [1]: 2000 nM
Kd [2]: 190 nM
Kd (protein FES, ref Jones et al. 2006 / Kaushansky et al. Mol Biosys 2008 / Kaushansky et al. Chem and Biol 2008): 1230 nM
Kd [3]: 2000 nM
Kd [4]: 280 nM
Kd (protein LCK, ref Jones et al. 2006 / Kaushansky et al. Mol Biosys 2008 / Kaushansky et al. Chem and Biol 2008): 2000 nM
Kd [5]: 240 nM
Kd [6]: 970 nM
Kd (protein PTPN6-NC, ref Jones et al. 2006 / Kaushansky et al. Mol Biosys 2008 / Kaushansky et al. Chem and Biol 2008): 2000 nM
Kd [7]: 1060 nM
Kd [8]: 1380 nM
Kd [9]: 1360 nM
Kd [10]: 2000 nM
Kd (protein SH2D2A, ref Jones et al. 2006 / Kaushansky et al. Mol Biosys 2008 / Kaushansky et al. Chem and Biol 2008): 2000 nM
Kd [11]: 2000 nM
Kd [12]: 1150 nM
Kd [13]: 980 nM
Kd [14]: 1600 nM
Kd (protein SOCS1, ref Jones et al. 2006 / Kaushansky et al. Mol Biosys 2008 / Kaushansky et al. Chem and Biol 2008): 2000 nM
Kd (protein SOCS2, ref Jones et al. 2006 / Kaushansky et al. Mol Biosys 2008 / Kaushansky et al. Chem and Biol 2008): 2000 nM
Kd [15]: 1140 nM
Kd [16]: 910 nM
Kd [17]: 2000 nM
Kd [18]: 720 nM
Kd (protein ZAP70-NC, ref Jones et al. 2006 / Kaushansky et al. Mol Biosys 2008 / Kaushansky et al. Chem and Biol 2008): 1650 nM

EDYEpYMNRQRDGd [ErbB3 pY1262, N-terminally rhodamine-labeled 13-mer phosphopeptide]
Kd (Protein PIK3R3-NC, original PM interactions, ref Jones et al. 2006 / Kaushansky et al. Chem and Biol 2008): 2000 nM
Kd (Protein PLCG2-NC, original PM interactions, ref Jones et al. 2006 / Kaushansky et al. Chem and Biol 2008): 2000 nM
Kd (Protein RASA1-NC, original PM interactions, ref Jones et al. 2006 / Kaushansky et al. Chem and Biol 2008): 2000 nM
Kd (Protein SLA, original PM interactions, ref Jones et al. 2006 / Kaushansky et al. Chem and Biol 2008): 2000 nM
Kd (Protein SOCS5, original PM interactions, ref Jones et al. 2006 / Kaushansky et al. Chem and Biol 2008): 2000 nM
Kd [19]: 1960 nM
Kd (protein RASA1-N, ref Jones et al. 2006 / Kaushansky et al. Chem and Biol 2008): 1210 nM

EEKEpYHAEGGKVd [ErbB1 pY869, N-terminally rhodamine-labeled 13-mer phosphopeptide]
Kd [1]: 2000 nM
Kd [2]: 1710 nM
